Test results from US7094405B1, “Peptides which elicit a high neutralizing antibody titer, cytotoxic T lymphocyte response and T helper cell response in a broad range of MHC type recipients” (priority 1986, dated 2006).
Where two headings read alike, the source gives them in different places.

Experiments:
[1] = system: peripheral blood lymphocytes of HIV-positive, influenza positive humans; conditions: cited from earlier work; for tested cases with significant IL-2 responses: peripheral blood lymphocytes of HIV-positive, influenza positive humans, previous study (42)
[2] = system: gp160-expressing 15-12 BALB/c fibroblast cell line; type: cell-based; conditions: spleen cells of B10.A(5R) mice immunized with 20 nmoles PCLUS4-18, restimulated 6 days
Procedure: The resulting effector cells were tested on the gp160-expressing 15-12 BALB/c fibroblast cell line or on neo-only transfected fibroblast cells (not shown) as targets (FIG. 9B). […] SEM of triplicate wells was less than 7.3% of the mean.

[3] = system: BALB/c.3T3 transfectants expressing the whole gp160 protein (cell line 15-12) or P18 pulsed 18neo cells; type: in vivo, mice
Procedure: Mice 8-20 weeks old were immunized subcutaneously at the tail base with 20 nmoles of each peptide mixed with QS21 (15 μg), the highly purified saponin fraction from the soap bark tree Quillaja saponaria, which retains the greatest adjuvant activity but is non-toxic (103). […] Cytolytic activity of in vitro secondary CTL was measured as described previously (104) using a 6 hr. assay with ^51Cr-labeled targets. […] Maximum release was determined from supernatants of cells that were lysed by the addition of 5% Triton X-100. Spontaneous release was determined from targets cells incubated without added effectors cells. The assay was performed in triplicate, with 5000 target cells per well.
Background lysis on control 18neo fibroblasts in the absence of peptide was less than 8%. SEM of triplicate wells was less than 7.2% of the mean.

Peptide 18 = conditions: for ELISA: Mean p18 Specific Absorbance ± S.E.M.: 31 days after single immunization with 20 nanomole peptide, 5 mouse sera at 1:1000 serum dilution
Procedure: ELISA. Wells of round bottom flexible PVC microtiter plates (#3912 Falcon Labware, Oxnard, Calif.) were coated overnight at 4° C. with 100 μl of 10 μM Peptide 18, substituted peptide 18, cluster peptide 3, cluster peptide 6, 0.2 μg/ml recombinant gp 120 (ABT, Advanced Biotechnologies, Mass.) or 2 μM sperm whale myoglobin in 0.1 M carbonate buffer pH 9.6. […] The plates were blocked with 1% BSA in phosphate buffered saline (PBS) for 1-1.5 h. at 4° C. and washed with PBS containing 0.05% Tween 20 and 1% BSA (PBSTB). Next, 100 μl of test serum was added to duplicate wells and incubated for 1-1.5 h. at 4° C. Test sera were assayed at 10 fold dilutions in PBSTB ranging from 1:100-1:10,000. The wells were then washed with 200 μl PBSTB 10 times using an automatic plate washer (BioRad Model 1550) and incubated for 1 h at 4° C. with 100 μl alkaline phosphatase-conjugated goat anti-mouse IgG (Promega, Madison, Wis.) diluted 1:7500 in PBSTB. After 10 washes, bound antibodies were detected by the addition of 100 μl of 1 mg/ml paranitrophenyl phosphate as substrate. The optical density at 405 nm was read with an ELISA reader. Specific absorbance was determined as the mean optical density at 405 nm on the relevant antigen coated wells minus the optical density 405 nm on nonrelevant sperm whale myoglobin coated wells.
(§1) Immunizations. Mice were immunized intraperitoneally with 20 nanomoles of each peptide emulsified 1:1 in Freund's Complete Adjuvant (CFA). At days 21 and 31 post immunization blood was drawn by retroorbital bleed, allowed to clot and the serum removed and frozen at −20° C.

HIV-1 IIIB = assay: Neutralization of HIV-1 IIIB by immune sera, quantitative infectivity microassay using CEM-SS cells; type: in vivo; conditions: 31 days after single immunization with 20 nanomole peptide
Procedure: as §1
Neutralization assays of HIV-1. The quantitative infectivity microassay using CEM-SS cells was performed as described previously (52). […] The mixtures were added to duplicate wells containing 5×10^4 DEAE-dextran treated CEM-SS cells for 1 h at 37° C., after which the virus-antibody mixtures were removed and replaced with medium, and the cells cultured only in complete medium for 5 days (for HIV-1 IIIB) or 4 days (for HIV-1 MN, determined to be optimal for each virus strain) at 37° C. in 5% CO2. Units of infectious virus were quantitated by subsequent syncytia formation of infected cells under an inverted microscope. […] The assay measures neutralization of cell-free virus in the first incubation, not inhibition of syncytium formation, which is only the readout for enumerating infectious virus. […]

AVAEGTDRVIEVVQGAYRAIRHIPRRIRQGLER [PCLUS6]
tested cases with significant IL-2 responses [1]: 58%

EQMHEDIISLWDQSLKPCVK [PCLUS 1]
donors in which IL-2 production was stimulated ([1]; HIV seropositive, flu-positive donors): 23 of 36 | tested cases with significant IL-2 responses [1]: 64%

KQIINMWQEVGKAMYAPPISGQIR [PCLUS3]
tested cases with significant IL-2 responses [1]: 73%

RDNWRSELYKYKVVKIEPLGVAPT [PCLUS4]
induction of CTL activity on in vitro restimulation (in words) [2]: did not induce any CTL activity | tested cases with significant IL-2 responses [1]: 52%

RIQRGPGRAFVTIGK [Peptide P18]
CTL activity, linkage requirement experiment (in words) ([3]; B10.D2 (PCLUS3 series) or B10.A(5R) (PCLUS4 series) mice, QS21, restimulated with 0.1 μM P18 and rIL2): negligible | CTL activity after single immunization in QS21 (in words) ([3]; B10.D2, B10.A(5R), B10.S(9R) mice, restimulated with P18, E:T up to 60:1): only marginal CTL activity | induction of CTL activity on in vitro restimulation (in words) [2]: not | ELISA: Mean p18 Specific Absorbance ± S.E.M. (Peptide 18; B10.A(5R) (A^bE^b) mice): 0.00 | ELISA: Mean p18 Specific Absorbance ± S.E.M. (Peptide 18; B10.BR or B10.A (A^kE^k) mice): 0.00 | ELISA: Mean p18 Specific Absorbance ± S.E.M. (Peptide 18; B10.HTT (A^aE^a) mice): 0.00 | ELISA: Mean p18 Specific Absorbance ± S.E.M. (Peptide 18; BALB/c or B10.D2 (A^dE^d) mice): 0.00 | peptide 18 specific antibody response (in words) (Peptide 18; mice of four strains immunized with 20 nanomoles of construct): no peptide 18 specific antibody was detected | No. of mice with positive neutralizing titers/total tested (HIV-1 IIIB; B10.BR or B10.A (A^kE^k) mice): (0/5) | No. of mice with positive neutralizing titers/total tested (HIV-1 IIIB; BALB/c or B10.D2 (A^dE^d) mice): (0/5)
